Assays:
[1] = system: PC12 cells, endothelial cells, heparin; conditions: cited from earlier work
chondrocytes = conditions: encapsulated cells; cited from earlier work
[2] = system: human aortic endothelial cells (HAEC); assay: HAEC monolayer formation on peptide scaffolds; assay type: cell-based; parameters: key to HAEC monolayer formation, peptide content 100% / HAEC monolayer formation, Blending (9:1): +: Score for optimal monolayer formation and cell survival; −: Score for poor or none monolayer formation and cell survival; conditions: for HAEC monolayer formation, Blending (9:1): RAD16-I: peptide sequence at a ratio 9:1 (v/v); for HAEC monolayer formation, peptide content 100%: scaffold of 100% peptide, 0.5% (w/v); for HAEC monolayer formation, peptide blends: 9:1 RAD16-I:modified peptide, seeded subconfluent (~30%)
Method: Endothelial cell culture system. Peptide scaffolds (0.5% w/v) were prepared at 100% peptide sequence for RAD16-I or blended with RAD16-I at a radio of 9:1 (RAD16-I: peptide sequence, on a volume/volume basis) for the three other cases (YIG, RYV, and TAG). Each solution was filtered (0.2 μm, Acrodysc filters, 4192, PALL, MI), loaded (30 μl) on top of a cell culture chamber insert (10 mm diameter, 136935, Nalge Nunc International, IL), and allowed to form a layer (average thickness=600 μm). Phosphate Buffer Saline (PBS) (600 μl) was added at the bottom of the well to induce hydrogel formation, and the system was incubated at room temperature for 30 min. PBS was replaced with culture medium, which was then replaced with fresh medium. The scaffolds were incubated for 1 hour with endothelial cell growth media (EGM-2, Cambrex, MD) in a cell culture incubator at 37° C. with 5% CO2.
(§1) Meanwhile, human aortic endothelial cells (HAEC) (CC-2535, Cambrex, MD) that had been maintained under standard culture conditions (passage 5-6) were harvested at 80% confluence using trypsin and loaded on top of the preformed peptide scaffolds at a cell density of 8×10^4 cells/cm^2 and cultured in the cell culture incubator at 37° C. with 5% CO2. Cell attachment assays were performed one hour after the initial cell loading. To perform the assays, the covering media was removed, and unattached cells were counted on a hematocytometer. Cell counting was performed by mechanically disrupting the scaffold containing cells by pipetting up and down and then counting cells on a hematocytometer after performing Trypan blue (T 9906, Sigma, MO) exclusion assay staining to assess cell viability. In some experiments, for comparison, EC were cultured on inserts coated with Matrigel or collagen (1.5 mg/ml, i.e. 0.15%) according to standard protocols.
In a first experiment, we tested the ability of HAEC to attach and form a monolayer when seeded on various peptide scaffolds generated by self-assembly of the peptides following addition of PBS to a 0.5%(w/v) solution of the peptide in water. […] HAEC cultured in the presence of scaffolds generated from peptides incorporating the other biologically active peptide motifs either died or formed isolated clusters (FIGS. 9A-9G).
We therefore decided to blend the peptides incorporating biologically active motifs with the prototypic RAD16-I sequence in order to reduce the overall concentration of the biologically active motif presented to cells. We selected a volume/volume ratio of 9:1 (RAD16-I:modified peptide sequence comprising biologically active peptide motif, where peptides were dissolved at equal concentrations on a w/w basis) and generated peptide scaffolds from solutions in which the unmodified and modified peptides were present in this ratio.

[3] = Circular dichroism (secondary structure); assay type: physicochemical; conditions: 25 μM peptide in water, room temperature, 195-250 nm
Method: Circular dichroism (DC). CD spectra were gathered on an Aviv model 202 spectropolarimeter. Samples were prepared by diluting stock peptide solutions in water (0.5%) to a working concentration of 25 μM. Samples were analysed at room temperature in a quartz cuvette with a path length of 0.3 cm and in the wavelength range 195-250 nm.
Circular dichroism. CD spectra were obtained for each peptide sequence to assess its secondary structure. The secondary structure identifies ordered structures within a polypeptide such as α-helices and β-sheets. […] (Havel, 1996).

[4] = system: human aortic endothelial cells (HAEC); assay: HAEC attachment assay on peptide scaffolds; assay type: cell-based; conditions: after one hour; modified peptides as 9:1 blends with RAD16-I
Method: as §1

[5] = system: human aortic endothelial cells (HAEC); assay: NO release determination (Griess method); assay type: cell-based; conditions: nitrite in culture supernatant; RAD16-I 100%, others 9:1 blend
Method: NO release determination. Nitric oxide (NO) release was estimated by measuring nitrites (NOx) by the Griess method. Briefly, the media was replaced after the third day of culture by new media without fetal bovine serum (FBS) or ascorbic acid. The next day, the media was used to analyze NO release using a commercially available kit (482702, Calbiochem, CA) following the manufacturer instructions. Each condition was tested in triplicate.

Molecule	Biological activity [1]	chondrocyte phenotype in hydrogel (chondrocytes)	HAEC monolayer formation, Blending (9:1) [2]	HAEC monolayer formation, peptide content 100% [2]	Secondary structure (CD) [3]	HAEC monolayer formation, peptide blends [2]	HAEC attachment to the surface [4]	nitric oxide (NO) release by HAEC [5]	HAEC monolayer formation, scaffold of 100% peptide ([2]; 0.5% (w/v) peptide, no blending)
PDGSR	Cell adhesion								
KAFDITYVRLKF	neurite outgrowth								
AcN-KLDLKLDLKLDL-CONH2 (Ac-KLDLKLDLKLDL-NH2) [KLD12]		retained their morphology and developed a cartilage-like, mechanically functional ECM rich in proteoglycans and type-II collagen							
CC(=O)N1CCC[C@H]1C(=O)N[C@@H](CC(=O)O)C(=O)N[C@@H](CO)C(=O)NCC(=O)N[C@@H](CCCNC(=N)N)C(=O)NCC(=O)NCC(=O)N[C@@H](CCCNC(=N)N)C(=O)N[C@@H](C)C(=O)N[C@@H](CC(=O)O)C(=O)N[C@@H](C)C(=O)N[C@@H](CCCNC(=N)N)C(=O)N[C@@H](C)C(=O)N[C@@H](CC(=O)O)C(=O)N[C@@H](C)C(=O)N[C@@H](CCCNC(=N)N)C(=O)N[C@@H](C)C(=O)N[C@@H](CC(=O)O)C(=O)N[C@@H](C)C(=O)N[C@@H](CCCNC(=N)N)C(=O)N[C@@H](C)C(=O)N[C@@H](CC(=O)O)C(=O)N[C@@H](C)C(N)=O [PDS, AcN-PDSGR-GG-(RADA)4-CONH2]			−	−	β-sheet				
Ac-KAFDITYVRLKFGGRADARADARADARADA-NH2 [KAF, AcN-KAFDITYVRLKF-GG-(RADA)4-CONH2]			−	−	random coil				
CSRARKQAASIKVAVSADR	vessel formation								
Ac-RYVVLPRGGRADARADARADARADA-NH2 [RYV, AcN-RYVVLPR-GG-(RADA)4-CONH2]			+	−	β-sheet	readily supported monolayer formation	~100%	inhibits NO release	
Ac-TAGSCLRKFSTMGGRADARADARADARADA-NH2 [TAG, AcN-TAGSCLRKFSTM-GG-(RADA)4-CONH2]			+	−	β-sheet	readily supported monolayer formation	~100%	promote NO release	
CC[C@H](C)[C@H](NC(=O)[C@H](Cc1ccc(O)cc1)NC(C)=O)C(=O)NCC(=O)N[C@@H](CO)C(=O)N[C@@H](CCCNC(=N)N)C(=O)NCC(=O)NCC(=O)N[C@@H](CCCNC(=N)N)C(=O)N[C@@H](C)C(=O)N[C@@H](CC(=O)O)C(=O)N[C@@H](C)C(=O)N[C@@H](CCCNC(=N)N)C(=O)N[C@@H](C)C(=O)N[C@@H](CC(=O)O)C(=O)N[C@@H](C)C(=O)N[C@@H](CCCNC(=N)N)C(=O)N[C@@H](C)C(=O)N[C@@H](CC(=O)O)C(=O)N[C@@H](C)C(=O)N[C@@H](CCCNC(=N)N)C(=O)N[C@@H](C)C(=O)N[C@@H](CC(=O)O)C(=O)N[C@@H](C)C(N)=O [YIG, AcN-YIGSR-GG-(RADA)4-CONH2]			+	+	β-sheet	readily supported monolayer formation	~100%	promote NO release	able to support the formation of a monolayer

Reference: patent US7713923B2, “Self-assembling peptides incorporating modifications and methods of use thereof” (Massachusetts Institute of Technology, priority 2003, dated 2010)
